Reference: PMC12627232 (MedComm, 2025)

What was measured:
MC38 syngeneic model = test: MC38 syngeneic model; format: in vivo
Protocol: C57BL/6J mice were obtained from HFK Bioscience (Beijing, China) and fed in laminar flow cabinets under SPF conditions. With the approval of the ethics committee of Shandong University, the animal experiments were conducted. […]. By the time tumors reached certain volumes, SDFZ‐8 treatment (SDFZ‐8 in PBS solution containing 5% DMSO, 60 mg/kg, qd, i.g.) was started, with five animals per treatment group. Body weight and tumor size were measured every day during the 14‐day treatment.

HDAC8 = target: T1, HDAC8 (Homo sapiens, UniProt Q9BY41); test: HDACs enzymatic assay HDAC8; format: biochemical
T1 construct: purchased BPS BIOSCIENCE Inc 50008
Protocol: (§1) HDACs enzymatic assays were conducted according to our previous work. […] Substrates (Boc‐Lys(acetyl)‐AMC for HeLa nuclear extract, Ac‐Leu‐Gly‐Lys (Tfa)‐AMC for HDAC4, HDAC5, HDAC6, HDAC7, HDAC9, HDAC10, and HDAC11, Boc‐Lys(triflouroacetyl)‐AMC for HDAC8 and Ac‐Leu‐Gly‐Lys(acetyl)‐AMC for HDAC1, HDAC2, HDAC3) were added to the mixture. The blank group was set to no enzyme or drug but contains substrates and the control group was set to no drug but contains substrates and enzymes to each 96‐well plate. After 30 min of incubation at 37°C, the mixture was terminated with 1 mg/mL trypsin and 3 µM TSA. After another 30 min, the fluorescence intensity was measured using a Varioskan plate reader at 360/460 nm. […] The inhibition curves and IC50 values were simulated and calculated using the log(inhibitor) versus response (three parameters) mode in GraphPad Prism software.

HDAC7 = target: T2, HDAC7 (Homo sapiens, UniProt Q8WUI4); test: HDACs enzymatic assay HDAC7; format: biochemical; conditions: Class IIa
T2 construct: purchased BPS BIOSCIENCE Inc 50007
Protocol: as §1

MDA-MB-231 cells [1] = test: TUNEL assay; format: cell-based, human; conditions: MDA-MB-231, 5 µM, 24 h
Protocol: The TUNEL assay was performed with the one‐step TUNEL apoptosis kit (MeilunBio) according to the manual from the manufacturer. Briefly, cells (5 × 10^5 cells per plate) were seeded in confocal dishes and incubated with drugs for 24 h. The medium was removed, and cells were fixed with 4% polyoxymethylene solution for 30 min. Subsequently, cells were treated with 20 µg/mL protease K for 5 min and TUNEL working solution for 1 h at 37°C. Eventually, cells were captured with a Leica TCS SP8 super‐resolution laser scanning confocal microscope.

MDA-MB-231 cells [2] = test: Colony formation assay; format: cell-based, human; conditions: 2 µM, 48 h
Protocol: The colony formation assay is performed by seeding 1000 MDA‐MB‐231 cells per well into 6‐well plates and allowing them to adhere overnight. […] Once colonies are visible (≥50 cells per colony), the medium is removed, and cells are gently washed with PBS, fixed with 4% paraformaldehyde for 15 min, and stained with Giemsa stain solution for 30 min. Excess stain is rinsed with water, and plates are air‐dried. Colonies are then imaged.

MC38 cells = test: PD-L1 expression in MC38 cells; format: cell-based; conditions: 24 h
[3] = In vivo pharmacokinetic study; conditions: Sprague-Dawley, rat, plasma, male SD rats
Protocol: The compound was prepared in a 1 mg/mL working solution using DMSO/solutol/saline. SD rats (6–8 weeks old, 180–200 g, male) were purchased from Beijing HFK Bioscience Co., Ltd. (Beijing, China) and fed in accordance with the guidelines for the care and use of laboratory animals of the ethical committee of Shandong University. The doses were 2.5 mg/kg (i.v.) and 10 mg/kg (i.g.), with three animals per treatment group. Blood samples were collected from the jugular vein at different time points using heparin sodium anticoagulation tubes. After anesthetizing rats with ether, blood samples were placed in an ice water mixture for 15 min, then centrifuged at 3000×g for 3 min to separate the plasma, and stored at −20°C. The LC–MS/MS was used to detect the concentration of the analyte at each time point, and the pharmacokinetic parameters were calculated using WinNolin8.2 software.

MDA-MB-231 cells [4] = test: PD-L1 expression by flow cytometry; format: cell-based, human
Protocol: MDA‐MB‐231 cells in logarithmic growth phase were inoculated into six‐well plates with a cell density of 3 × 10^4 cells per well. After incubated at 37°C for 24 h, the original medium was abandoned and 900 µL complete medium was added, in which HitransG P infection solution was added. The virus dosage was calculated according to the formula and added to the cell. Virus volume = cell number × MOI value/virus titer. After incubated in the incubator at 37°C for 16 h, replace fresh complete medium. After that, the medium changed every 24 h. 48 h after infection, the cells were treated with or without compound at a concentration of 1 µM. After 48 h of culture, the fluorescence expression was observed under microscope, and the silencing effect of shHDAC1 was detected by Western Blot. The antibodies HDAC1 (Abmart; #T55154) and GAPDH (Beyotime; #AF2819) were used. The HDAC1‐siRNA lentivirus (shHDAC1) and negative control lentivirus (shCtrl) were obtained from Shanghai GeneChem Co., Ltd. (Shanghai, China).
Next, cells were digested into single‐cell suspension with trypsin, collected in a flow tube and washed with precooled 1 × PBS. Mouse serum was added to cells for 30 min at room temperature to block cells. Then the cells were incubated with anti‐human‐PD‐L1 (BioLegend; #329732) at 4°C for 1 h, and flow cytometry was performed with FACS Celesta (BD Biosciences, USA). […]

MDA-MB-231 cells [5] = test: GreenNuc assay for caspase-3 activation; format: cell-based, human; conditions: MDA-MB-231, 24 h
Protocol: Caspase‐3 activation was detected with the GreenNuc caspase‐3 assay kit for live cells (Beyotime Inc). Cells (10^5 cells per well) were seeded in black 96‐well plates and treated with different concentrations of compounds. After 24 h, the medium was discarded, and cells were treated with GreenNuc caspase‐3 substrate at room temperature for 30 min. Fluorescence intensity was measured using a Varioskan plate reader at 485/515 nm, and the final activation folds were calculated.

T1 sequence (Q9BY41 whole entry): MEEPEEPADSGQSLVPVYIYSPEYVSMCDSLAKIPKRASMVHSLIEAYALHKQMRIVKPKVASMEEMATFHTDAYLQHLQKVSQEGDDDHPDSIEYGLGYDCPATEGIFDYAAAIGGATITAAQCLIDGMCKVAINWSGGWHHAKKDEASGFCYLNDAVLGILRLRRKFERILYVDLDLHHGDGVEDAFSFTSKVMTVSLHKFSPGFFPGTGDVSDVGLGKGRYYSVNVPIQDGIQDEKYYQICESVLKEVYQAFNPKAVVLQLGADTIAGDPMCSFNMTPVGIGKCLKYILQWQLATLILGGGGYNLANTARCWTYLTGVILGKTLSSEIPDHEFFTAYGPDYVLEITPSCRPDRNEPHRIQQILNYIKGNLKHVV
T2 sequence (Q8WUI4 whole entry): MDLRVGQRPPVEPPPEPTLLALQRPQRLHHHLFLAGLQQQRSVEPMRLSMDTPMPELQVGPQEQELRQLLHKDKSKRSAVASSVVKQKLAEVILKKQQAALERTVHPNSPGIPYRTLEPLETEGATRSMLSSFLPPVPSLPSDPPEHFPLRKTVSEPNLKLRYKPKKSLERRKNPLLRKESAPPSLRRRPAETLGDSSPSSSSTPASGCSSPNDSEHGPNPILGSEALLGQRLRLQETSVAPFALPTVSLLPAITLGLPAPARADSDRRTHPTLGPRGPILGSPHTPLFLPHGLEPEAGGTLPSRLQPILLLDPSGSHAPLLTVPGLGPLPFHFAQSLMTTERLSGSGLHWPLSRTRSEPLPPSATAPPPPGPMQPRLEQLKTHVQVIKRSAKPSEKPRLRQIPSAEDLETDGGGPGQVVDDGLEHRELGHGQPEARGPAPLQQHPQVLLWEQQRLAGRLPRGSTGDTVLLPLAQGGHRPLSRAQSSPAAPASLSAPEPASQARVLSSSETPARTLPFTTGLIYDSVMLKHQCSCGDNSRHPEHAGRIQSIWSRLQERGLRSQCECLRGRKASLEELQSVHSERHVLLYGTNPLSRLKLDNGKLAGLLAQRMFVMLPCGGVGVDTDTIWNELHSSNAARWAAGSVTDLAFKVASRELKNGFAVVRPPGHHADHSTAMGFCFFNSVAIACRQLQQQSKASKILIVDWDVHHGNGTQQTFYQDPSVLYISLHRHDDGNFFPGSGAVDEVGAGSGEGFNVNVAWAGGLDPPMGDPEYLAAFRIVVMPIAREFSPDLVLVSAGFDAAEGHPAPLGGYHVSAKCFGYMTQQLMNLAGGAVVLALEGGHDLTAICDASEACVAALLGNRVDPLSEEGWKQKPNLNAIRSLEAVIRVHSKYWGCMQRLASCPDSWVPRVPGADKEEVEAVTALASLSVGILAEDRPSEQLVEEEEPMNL

For `O=C(CCCCCCNC(=O)c1cc(OCCc2ccccc2)c2ccccc2n1)NO` [SDFZ-8], the “toxicity in organs (heart, liver, spleen, lung, kidney), H&E staining” value (MC38 syngeneic model) was “low toxicity”, the TGI (MC38 syngeneic model; C57BL/6J mice, SDFZ-8 60 mg/kg qd i.g., 14-day treatment) was 71% and the IC50 (HDAC8; Class I, mean ± SD of three) was 750 ± 70 nM. The “selectivity toward HDAC8” value (HDAC8; relative to HDAC1) was “more than 800 fold”, the IC50 (HDAC7) was over 10000 nM and the “TUNEL green fluorescence (apoptosis)” value (MDA-MB-231 cells [1]) was “higher intensity of green fluorescence compared with SAHA”. For the same compound, the “colony formation of MDA-MB-231” value (MDA-MB-231 cells [2]) was “significantly inhibited”, the “expression level of PD-L1” value (MC38 cells) was “increased” and the AUC(0-inf) ([3]; iv, i.v. 2.5 mg/kg) was 3120 ± 242 ng·h/mL. It also gave an AUC(0-t) ([3]; iv, i.v. 2.5 mg/kg) of 2730 ± 260 ng·h/mL, a Cmax ([3]; iv, i.v. 2.5 mg/kg) of 1750 ± 498 ng/mL and a Tmax ([3]; iv, i.v. 2.5 mg/kg) of 0.08 ± 0.01 h. The half-life ([3]; iv, i.v. 2.5 mg/kg) was 2.29 ± 1.24 h, the bioavailability ([3]; oral, i.g. 10 mg/kg vs i.v. 2.5 mg/kg, read-out: F% (oral bioavailability)) was 26.1% and the AUC(0-inf) ([3]; po, i.g. 10 mg/kg) was 3260 ± 663 ng·h/mL. For the same compound, the AUC(0-t) ([3]; po, i.g. 10 mg/kg) was 3080 ± 206 ng·h/mL, the Cmax ([3]; po, i.g. 10 mg/kg) was 659 ± 63.1 ng/mL and the Tmax ([3]; po, i.g. 10 mg/kg) was 0.33 ± 0.14 h. For the same compound, the half-life ([3]; po, i.g. 10 mg/kg) was 5.74 ± 1.51 h, the PD-L1 expression (MDA-MB-231 cells [4]) was “increase” and the caspase-3 activation (MDA-MB-231 cells [5]) was “significantly higher than that observed for SAHA”.
